US7709497B2, “Pyrazolo[3,4-b]pyridine compound, and its use as a PDE4 inhibitor” (Glaxo Group Limited, priority 2004, dated 2010)

Tested on: Dinitrofluorobenzene (DNFB)-induced delayed type hypersensitivity (DTH) response in pigs
Assay: Pig model of atopic dermatitis: DNFB-induced DTH response, skin topical administration
Type: in vivo
Description: The pig DTH (delayed type hypersensitivity) model of contact hypersensitivity utilizes the Th2-mediated inflammatory response in pig skin to mimic the pathology of atopic dermatitis in humans. The model measures the potential anti-inflammatory effect of compounds, topically-applied to the skin, on the acute DTH (delayed type hypersensitivity) response in castrated male Yorkshire pigs.
In general in the assay, pigs (domestic Yorkshire pigs, 15-18 kg at time of sensitization, castrated males) are first sensitized by topical application of ca. 10% (w/v) dinitrofluorobenzene (DNFB) dissolved in DMSO:acetone:olive oil (ca. 1:5:3) (ca. 40 mg DNFB, 400 microlitre solution total) to the ears (outer) and groin (inner). The pigs are then challenged 12 days later with ca. 0.6% (w/v) DNFB applied to randomized sites on the shaved back of the pigs (ca. 90 micrograms/site; sites are identified and numbered by grid made with marking pen).
On the day of challenge, the treatments are performed at about 2 hours prior to and about 6 hours after challenge (for DMSO/acetone solutions/suspensions, to maximize exposure to drug), or at about 30 minutes after and about 6 hours after challenge (for topical ointments or creams, representing a more clinically relevant treatment protocol).
One day (about 24 hrs) after challenge, and optionally again at ca. 48 hrs post challenge, test sites are visually evaluated for intensity and extent of erythema by measuring the diameter of the reaction at its widest point and assigning scores of 0 to 4 for each of erythema intensity and erythema extent. Induration (a measure of swelling) is also scored 0 to 4. Scores for erythema intensity, erythema extent and induration are assigned according to the following criteria: Intensity of Erythema: 0=normal, 1=minimal, barely visible, 2=mild, 3=moderate, 4=severe. Extent of Erythema (not raised): 0=no edema, 1=macules of pin head size, 2=lentil sized macules, 3=confluent macules, 4=diffuse over entire site. Induration (palpable): 0=normal, 1=nodules of pin head size, 2=doughy lentil sized nodules, 3=confluent firm nodules, 4=diffuse hard lesion. The summed visual score at ca. 24 hours includes the individual scores for erythema intensity, erythema extent, and induration; so the maximal summed score for each site would be 12. High summed scores can generally indicate a high inflammatory response. Visual scores are subject to some inaccuracy/error.
Differences in the summed score between adjacent control (placebo) and treatment sites on the grids are calculated. This difference value is then used to determine the percent inhibition compared to the summed score for the control (placebo) sites. The more negative the difference value, the greater the calculated inhibition. Percent inhibition of (percent inhibition compared to) the mean summed score can be calculated.
About 24 hours after challenge, treatment sites can optionally also be visually evaluated for lesion area.
The anti-inflammatory effect of the compound of formula (I) (“free base” form), applied topically to the skin, on the acute DTH response in castrated male Yorkshire pigs is compared to that of another PDE4 inhibitor cipamfylline (BRL-61063) and the topical immunomodulator pimecrolimus.
In the above assay, the compound of formula (I) is topically administered: either (A) at ca. 2.5% (w/v) concentration in a solution of ca. 10% DMSO/90% acetone (ca. 50 microliters or ca. 1.5 mg/site) at about 2 hours prior to and about 6 hours after the DNFB challenge; or (B) at ca. 0.5% (w/w) concentration in an ointment containing propylene glycol (PG)*(ca. 25 mg of formulation/site) at about 30 minutes after and about 6 hours after the DNFB challenge. […]

CCn1ncc2c(NC3CCN(C(N)=O)CC3)c(C(=O)NCc3ccc(C)c(C)c3)cnc21 [compound of formula (I), 4-{[1-(aminocarbonyl)-4-piperidinyl]amino}-N-[(3,4-dimethylphenyl)methyl]-1-ethyl-1H-pyrazolo[3,4-b]pyridine-5-carboxamide]
inhibition of mean summed score (erythema intensity, erythema extent, induration) (ca. 0.5% (w/w) in PG ointment, vs placebo PG ointment, ca. 24 h after challenge, p<0.05 by ANOVA): 13-14% | reduction in mean summed score (ca. 2.5% (w/v) in DMSO/acetone solution, vs vehicle alone, ca. 24 h after challenge): about 21% | lesion area (skin administration in DMSO/acetone or PG ointment, subject to some inaccuracy/error): decrease the lesion area
